Broadly, the Kd is the concentration at which binding is half-saturated.

Like-named read-outs stand apart in the source and are kept apart here.

Test [1] deals with T1, wild-type LeuT (Aquifex aeolicus, UniProt O67854).
In test [2] the target is Δ13 LeuBAT (Aquifex aeolicus, UniProt O67854, A261V/E290S/G24D/G408T/I106S/I262L/I359G/N21Y/P362G/S256G/T254S/T409G/Y265F). Nature of the test: biochemical.
Test [3] addresses T1, wild-type LeuT. As to the kind of experiment: biochemical. As to conditions: saturation binding of 3H-mazindol.
Test [4] addresses hSERT (human serotonin transporter). As to conditions: cited from earlier work.

For `C[C@H](N)C(=O)O` [alanine], the “suppression of sertraline binding to wild-type LeuT” value in test [1] (3 µM 3[H]-sertraline with 5 mM Ala) is recorded as “could not suppress the binding of sertraline”.

On to `OC1(c2ccc(Cl)cc2)c2ccccc2C2=NCCN21` (stereo not drawn) [mazindol], for which the equilibrium dissociation constant (Kd) was 112 ± 18 nM in test [2], 22300 ± 5400 nM in test [3] and 103 ± 4.7 nM in test [4].

Take `Fc1ccc([C@@H]2CCNC[C@H]2COc2ccc3c(c2)OCO3)cc1` [paroxetine]: the dissociation constant Kd in test [2] is 431 ± 24 nM; in test [1] (saturation binding of 3H-labeled drug, n=3, ±s.e.m), “could not be fit to an isotherm because of low affinity”.

(Values after paper PMC3904662 (Nature, 2013).)
